# Source: ChEMBL document CHEMBL1201862, “PubChem BioAssay data set” (2004)
# Activity calls are given as the source filed them.
# Columns and labels:
# [1] = biological target: Heat shock protein HSP 90-alpha (Homo sapiens, UniProt P07900); format: functional, organism-based
# [2] = biological target: T1, Mitochondrial peptide methionine sulfoxide reductase (Bos taurus, UniProt P54149); format: functional;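 further: absorbance read-out, biochemical high-throughput dose-response screen for MsrA inhibitors, confirmatory; recombinant bovine MsrA coupled to E. coli TrxB with NADPH and selenocystamine; potency is for inhibitors of MsrA activity on DMSO substrate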
# T1 sequence (P54149 whole entry): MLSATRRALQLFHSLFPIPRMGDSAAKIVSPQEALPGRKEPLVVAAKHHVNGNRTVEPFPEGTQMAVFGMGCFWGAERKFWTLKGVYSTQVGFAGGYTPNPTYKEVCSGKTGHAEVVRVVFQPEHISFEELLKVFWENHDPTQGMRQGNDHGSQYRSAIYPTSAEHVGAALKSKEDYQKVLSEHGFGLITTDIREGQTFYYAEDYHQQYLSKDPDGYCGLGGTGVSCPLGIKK
# [3] = biological target: T2, Cysteine protease ATG4B (Homo sapiens, UniProt Q9Y4P1); format: functional;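 further: Fluorescence-based dose-response confirmation assay measuring inhibition of ATG4B activity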
# T2 sequence (Q9Y4P1 whole entry): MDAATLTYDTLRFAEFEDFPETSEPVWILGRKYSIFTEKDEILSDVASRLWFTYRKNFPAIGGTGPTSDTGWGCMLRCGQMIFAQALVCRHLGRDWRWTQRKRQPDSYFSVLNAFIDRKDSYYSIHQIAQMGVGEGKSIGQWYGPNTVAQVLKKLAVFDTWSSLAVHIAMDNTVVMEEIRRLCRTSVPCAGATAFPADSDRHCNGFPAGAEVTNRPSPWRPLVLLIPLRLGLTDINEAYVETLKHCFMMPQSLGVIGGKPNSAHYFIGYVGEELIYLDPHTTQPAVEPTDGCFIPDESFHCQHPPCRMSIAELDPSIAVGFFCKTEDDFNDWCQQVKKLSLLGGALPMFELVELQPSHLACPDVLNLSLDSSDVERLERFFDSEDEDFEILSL
# [4] = biological target: Phospholipase A2 (Homo sapiens, UniProt P04054); format: functional;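 further: confirmatory dose-response counterscreen on phospholipase A2, testing hits that came from an ultra-high-throughput screen for ATG4B inhibitors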
# Sequence of Phospholipase A2 (P04054 whole entry): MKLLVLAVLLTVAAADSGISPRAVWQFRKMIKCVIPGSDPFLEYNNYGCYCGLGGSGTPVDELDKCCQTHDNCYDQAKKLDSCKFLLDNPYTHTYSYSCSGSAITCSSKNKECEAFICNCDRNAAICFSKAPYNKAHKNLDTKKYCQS
# [5] = biological target: Voltage-gated inwardly rectifying potassium channel KCNH2 (Homo sapiens, UniProt Q12809); settings: Potency;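 further: confirmatory quantitative high-throughput screen measuring inhibition of hERG channel activity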
# Sequence of Voltage-gated inwardly rectifying potassium channel KCNH2 (Q12809 whole entry): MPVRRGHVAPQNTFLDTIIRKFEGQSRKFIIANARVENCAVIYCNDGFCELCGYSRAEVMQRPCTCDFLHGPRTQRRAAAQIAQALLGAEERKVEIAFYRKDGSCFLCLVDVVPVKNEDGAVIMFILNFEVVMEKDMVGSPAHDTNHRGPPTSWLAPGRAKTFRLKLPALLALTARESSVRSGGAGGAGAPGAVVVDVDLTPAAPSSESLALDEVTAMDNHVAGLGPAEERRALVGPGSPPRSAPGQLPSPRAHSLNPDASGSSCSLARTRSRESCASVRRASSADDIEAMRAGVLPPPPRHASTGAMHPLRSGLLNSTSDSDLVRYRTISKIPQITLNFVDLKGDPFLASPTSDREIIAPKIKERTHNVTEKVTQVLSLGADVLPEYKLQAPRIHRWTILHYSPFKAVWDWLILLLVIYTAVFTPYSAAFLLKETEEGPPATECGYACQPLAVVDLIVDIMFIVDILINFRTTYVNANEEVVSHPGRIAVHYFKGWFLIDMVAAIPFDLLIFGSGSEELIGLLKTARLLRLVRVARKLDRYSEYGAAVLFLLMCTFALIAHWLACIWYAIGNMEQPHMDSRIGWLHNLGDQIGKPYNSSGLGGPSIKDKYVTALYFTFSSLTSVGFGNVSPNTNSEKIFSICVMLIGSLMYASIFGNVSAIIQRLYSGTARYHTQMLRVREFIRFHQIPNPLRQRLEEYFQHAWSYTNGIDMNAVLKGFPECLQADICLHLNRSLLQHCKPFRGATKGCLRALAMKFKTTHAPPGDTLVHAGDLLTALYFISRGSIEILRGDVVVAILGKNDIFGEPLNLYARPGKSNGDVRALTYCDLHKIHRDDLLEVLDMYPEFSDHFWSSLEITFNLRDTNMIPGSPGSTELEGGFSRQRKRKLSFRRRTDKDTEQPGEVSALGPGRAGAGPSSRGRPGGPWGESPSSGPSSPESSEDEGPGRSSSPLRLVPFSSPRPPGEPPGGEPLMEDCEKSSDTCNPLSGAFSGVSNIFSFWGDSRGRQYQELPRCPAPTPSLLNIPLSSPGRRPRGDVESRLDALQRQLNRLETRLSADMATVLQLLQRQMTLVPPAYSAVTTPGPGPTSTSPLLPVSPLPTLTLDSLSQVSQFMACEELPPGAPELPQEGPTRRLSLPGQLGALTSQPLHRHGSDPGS
# [6] = biological target: Melanocortin receptor 4 (Homo sapiens, UniProt P32245); format: functional, cell-based;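 further: Cell-based assay with luminescence read-out, confirmatory dose-response testing for agonist activity of biased ligands at MC4R; human U2OS cells with tagged receptor and beta-arrestin; potency of agonists that increase receptor coupling to beta-arrestin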
# Sequence of Melanocortin receptor 4 (P32245 whole entry): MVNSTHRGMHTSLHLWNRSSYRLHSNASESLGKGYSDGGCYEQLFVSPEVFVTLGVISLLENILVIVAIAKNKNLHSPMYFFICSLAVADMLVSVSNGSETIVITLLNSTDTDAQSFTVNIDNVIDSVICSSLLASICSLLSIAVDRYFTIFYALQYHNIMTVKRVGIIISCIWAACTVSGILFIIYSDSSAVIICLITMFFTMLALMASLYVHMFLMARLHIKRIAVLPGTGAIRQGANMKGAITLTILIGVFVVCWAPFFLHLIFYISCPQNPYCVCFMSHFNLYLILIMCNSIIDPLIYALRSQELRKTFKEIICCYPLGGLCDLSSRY
# [7] = Luminescence Cell-Based Dose Confirmation HTS to Identify Activators of 5'UTR Stem-Loop Driven Alpha-Synuclein mRNA Translation in H4 Neuroglioblastoma Cells. [Related pubchem assays: 1829 (Project Summary), 1814 (Primary HTS)]; format: functional
# [8] = Luminescence Cell-Based Dose Response HTS to Identify Activators of Luciferase Translation or Activity in H4 […] Cells. [Related pubchem assays: 1829 (Project Summary), 1814 (Primary HTS)]; format: functional
# [9] = system: H4; experiment: Luminescence Cell-Based Dose Response HTS to Identify Activators of 5'UTR Stem-Loop Driven Prion Protein mRNA Translation in H4 Neuroglioblastoma Cells. [Related pubchem assays: 1829 (Project Summary), 1814 (Primary HTS)]; format: functional; settings: Homo sapiens
# [10] = NIH-3T3 fibroblast cytotoxicity, dose response, cytotoxicity control, cell-based, fluorescence, Alamar Blue, secondary assay (AID 2327); format: functional;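 further: NIH-3T3 mouse fibroblasts cultured with fluconazole at 8 µg/mL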
# [11] = cells; format: functional, cell-based
# [12] = fluconazole-exposed Candida albicans growth modulators – fluorescence, retest, confirmation (AID 2467); format: functional, cell-based
# [13] = Trypanosoma cruzi growth suppression in host cells – NIH3T3 host cells, beta-gal luminescence, confirmation (AID 2044); format: functional, cell-based;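 further: intracellular parasites grown in NIH/3T3 mouse fibroblasts as host cells; luminescent beta-galactosidase reporter signal from transgenic T. cruzi replicating inside host cells; inhibitors lower the luminescence signal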
# [14] = cells; format: functional, cell-based; remark: listed apart in the source
# [15] = biological target: T3, Serine/threonine-protein phosphatase (Candida dubliniensis (strain CD36 / CBS 7987 / NCPF 3949 / NRRLY-17841) (Yeast), UniProt B9W6M3); experiment: blockers of CaCl2-induced CDRE-lacZ signaling – S. cerevisiae, luminescence, secondary, dose response (AID 2388); format: functional, cell-based;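 further: yeast reporter cells carrying a calcineurin-responsive lacZ construct stimulated with calcium chloride; luminescent beta-galactosidase reporter signal in whole cells rather than isolated phosphatase activity; potency for inhibition where a drop in reporter signal means calcineurin blockade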
# T3 sequence (B9W6M3 whole entry): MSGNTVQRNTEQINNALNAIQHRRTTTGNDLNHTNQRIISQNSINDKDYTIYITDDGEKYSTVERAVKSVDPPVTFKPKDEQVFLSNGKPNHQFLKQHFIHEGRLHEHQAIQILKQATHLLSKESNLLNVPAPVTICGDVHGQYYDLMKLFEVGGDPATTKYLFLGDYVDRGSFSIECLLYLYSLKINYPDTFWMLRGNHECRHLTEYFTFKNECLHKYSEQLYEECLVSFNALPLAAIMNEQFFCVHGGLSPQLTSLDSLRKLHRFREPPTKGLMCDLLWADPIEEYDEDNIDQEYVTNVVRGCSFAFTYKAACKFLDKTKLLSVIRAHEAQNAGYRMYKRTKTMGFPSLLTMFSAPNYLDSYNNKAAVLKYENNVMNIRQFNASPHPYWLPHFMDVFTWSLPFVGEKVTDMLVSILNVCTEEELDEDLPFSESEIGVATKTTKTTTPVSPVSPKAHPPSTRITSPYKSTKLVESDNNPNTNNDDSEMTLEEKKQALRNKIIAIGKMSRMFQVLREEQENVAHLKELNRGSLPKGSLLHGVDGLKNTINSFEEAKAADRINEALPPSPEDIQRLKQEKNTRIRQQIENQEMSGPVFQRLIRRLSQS
# [16] = NIH3T3 cell viability loss – ATP luminescence, mouse fibroblasts, counter-screen, dose response (AID 2010); format: functional, cell-based;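 further: cells exposed to compound for about 90 hours before reading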
# [17] = system: INS1; experiment: INS-1E survival protection against cytokine death – cell-based, luminescence, retest, dose response (AID 449756); format: functional; settings: Rattus norvegicus;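 further: cell death triggered by IL-1 beta plus TNF-alpha plus IFN-gamma mixture; protective hits raise ATP signal compared with cytokine alone wells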
# [18] = system: Vero; experiment: cells; format: functional; settings: Chlorocebus sabaeus
# [19] = biological target: ATP-dependent molecular chaperone HSP82 (Candida albicans (strain WO-1) (Yeast), UniProt C4YTQ8); experiment: steroid-induced GRE reporter decrease in yeast – S. cerevisiae, luminescence, Hsp90 inhibitor project, dose response (AID 2400); format: functional, cell-based;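 further: beta-galactosidase luminescence from glucocorticoid response element reporter as proxy for Hsp90 function; inhibitor potency where signal loss means Hsp90 inhibition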
# Sequence of ATP-dependent molecular chaperone HSP82 (C4YTQ8 whole entry): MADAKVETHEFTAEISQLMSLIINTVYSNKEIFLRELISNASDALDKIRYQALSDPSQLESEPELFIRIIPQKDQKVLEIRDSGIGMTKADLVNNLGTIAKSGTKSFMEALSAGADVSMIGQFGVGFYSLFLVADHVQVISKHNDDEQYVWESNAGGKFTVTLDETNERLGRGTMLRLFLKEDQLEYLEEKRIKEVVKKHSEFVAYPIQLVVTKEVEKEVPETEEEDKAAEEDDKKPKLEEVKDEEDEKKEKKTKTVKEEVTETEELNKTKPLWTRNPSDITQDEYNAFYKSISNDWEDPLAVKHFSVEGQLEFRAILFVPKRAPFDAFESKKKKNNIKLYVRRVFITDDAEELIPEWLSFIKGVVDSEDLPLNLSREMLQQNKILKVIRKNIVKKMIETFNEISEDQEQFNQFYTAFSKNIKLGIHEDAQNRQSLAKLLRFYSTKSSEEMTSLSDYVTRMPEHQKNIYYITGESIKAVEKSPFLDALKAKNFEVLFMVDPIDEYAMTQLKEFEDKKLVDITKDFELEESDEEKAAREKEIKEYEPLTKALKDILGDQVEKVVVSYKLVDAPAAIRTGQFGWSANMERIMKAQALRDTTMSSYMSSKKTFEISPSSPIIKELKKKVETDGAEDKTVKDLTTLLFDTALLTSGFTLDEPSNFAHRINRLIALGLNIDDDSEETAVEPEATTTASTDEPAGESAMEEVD
# [20] = mammalian cell viability loss – Alamar Blue, dry powder, cytotoxicity control for antifungal single agent project, dose response (AID 602188); format: functional, cell-based
# [21] = biological target: Glucose-6-phosphate 1-dehydrogenase (Homo sapiens, UniProt P11413); experiment: inhibition of Homo sapiens G6PD, dose series – biochemical, fluorescence, selectivity assay for P. falciparum G6PD inhibitor project, dose response (AID 504792); format: functional
# Sequence of Glucose-6-phosphate 1-dehydrogenase (P11413 whole entry): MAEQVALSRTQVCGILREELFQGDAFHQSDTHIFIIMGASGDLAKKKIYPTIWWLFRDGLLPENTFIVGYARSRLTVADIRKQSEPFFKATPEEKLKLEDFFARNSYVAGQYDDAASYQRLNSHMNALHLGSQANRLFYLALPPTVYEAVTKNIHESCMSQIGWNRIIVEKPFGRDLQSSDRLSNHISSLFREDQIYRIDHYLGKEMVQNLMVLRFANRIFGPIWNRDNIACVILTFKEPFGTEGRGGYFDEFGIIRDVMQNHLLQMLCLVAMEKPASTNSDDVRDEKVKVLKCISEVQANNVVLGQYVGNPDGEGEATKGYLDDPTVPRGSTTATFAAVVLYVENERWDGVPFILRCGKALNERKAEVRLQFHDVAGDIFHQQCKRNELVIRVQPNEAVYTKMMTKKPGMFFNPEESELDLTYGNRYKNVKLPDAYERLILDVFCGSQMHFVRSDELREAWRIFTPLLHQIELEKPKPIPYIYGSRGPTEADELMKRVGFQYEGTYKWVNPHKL
# [22] = biological target: Protein Wnt-3a (Mus musculus, UniProt P27467); experiment: antagonism of Wnt3a pathway luciferase reporter – Wnt-LIGHT cells, luminescence, selectivity assay for Gli-SUFU antagonist project, dose response (AID 651570); format: functional; settings: read-out: IC50_Mean;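 further: Wnt-LIGHT reporter cells stimulated with conditioned medium from Wnt3a-producing cells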
# Sequence of Protein Wnt-3a (P27467 whole entry): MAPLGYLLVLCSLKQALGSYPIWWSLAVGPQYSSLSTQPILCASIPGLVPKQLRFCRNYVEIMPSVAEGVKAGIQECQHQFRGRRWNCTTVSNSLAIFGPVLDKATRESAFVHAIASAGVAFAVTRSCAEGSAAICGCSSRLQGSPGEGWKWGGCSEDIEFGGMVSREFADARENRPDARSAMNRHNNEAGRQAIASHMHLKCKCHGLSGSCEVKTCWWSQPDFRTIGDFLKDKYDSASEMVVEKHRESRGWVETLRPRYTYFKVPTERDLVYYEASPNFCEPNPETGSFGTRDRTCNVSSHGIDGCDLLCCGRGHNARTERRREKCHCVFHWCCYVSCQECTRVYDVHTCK
# [23] = system: Escherichia coli; experiment: microbe, parasite or virus in culture
# [24] = system: Streptococcus sp. 'group A'; experiment: Streptococcus pyogenes SK(-)GAS viability under kanamycin – luminescence, BacTiterGlo, confirmation, counter-screen for streptokinase expression inhibitor project, dose response (AID 1900); format: functional, organism-based
# [25] = biological target: T4, Streptokinase A (Streptococcus pyogenes serotype M1, UniProt P10520); experiment: viability-normalized secreted streptokinase activity reduction – plasminogen activation absorbance, OD405, dose response (AID 1914); format: functional, Streptococcus pyogenes M1 GAS;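 further: secreted streptokinase activity via plasminogen activation per viability signal from cell pellet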
# T4 sequence (P10520 whole entry): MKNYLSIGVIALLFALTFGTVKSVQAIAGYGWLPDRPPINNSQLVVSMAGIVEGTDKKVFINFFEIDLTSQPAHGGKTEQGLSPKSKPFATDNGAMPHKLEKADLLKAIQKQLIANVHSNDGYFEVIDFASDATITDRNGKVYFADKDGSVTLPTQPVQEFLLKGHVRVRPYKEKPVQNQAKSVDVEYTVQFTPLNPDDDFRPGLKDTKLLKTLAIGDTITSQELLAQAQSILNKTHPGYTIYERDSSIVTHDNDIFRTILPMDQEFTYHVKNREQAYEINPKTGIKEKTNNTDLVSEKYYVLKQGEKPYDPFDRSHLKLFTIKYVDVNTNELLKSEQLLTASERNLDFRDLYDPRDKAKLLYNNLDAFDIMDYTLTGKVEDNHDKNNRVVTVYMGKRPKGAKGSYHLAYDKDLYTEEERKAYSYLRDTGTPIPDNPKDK
# [26] = system: Streptococcus; experiment: GAS UMAA2166 growth inhibition – luminescence, BacTiterGlo, counter-screen for streptokinase expression inhibitor project, dose response (AID 1915); format: functional, organism-based;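 further: potency for reduction of bacterial viability or growth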
# [27] = biological target: T5, COUP transcription factor 2 (Homo sapiens, UniProt P24468); experiment: Luminescence-based cell-based high throughput dose response assay to identify inhibitors of COUP-TFII (NR2F2).; format: functional;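 further: HEK293 cells transiently cotransfected with COUP-TFII expression vector and reporter; luciferase reporter luminescence driven by COUP-TFII from the pX2-168 reporter plasmid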
# T5 sequence (P24468 whole entry): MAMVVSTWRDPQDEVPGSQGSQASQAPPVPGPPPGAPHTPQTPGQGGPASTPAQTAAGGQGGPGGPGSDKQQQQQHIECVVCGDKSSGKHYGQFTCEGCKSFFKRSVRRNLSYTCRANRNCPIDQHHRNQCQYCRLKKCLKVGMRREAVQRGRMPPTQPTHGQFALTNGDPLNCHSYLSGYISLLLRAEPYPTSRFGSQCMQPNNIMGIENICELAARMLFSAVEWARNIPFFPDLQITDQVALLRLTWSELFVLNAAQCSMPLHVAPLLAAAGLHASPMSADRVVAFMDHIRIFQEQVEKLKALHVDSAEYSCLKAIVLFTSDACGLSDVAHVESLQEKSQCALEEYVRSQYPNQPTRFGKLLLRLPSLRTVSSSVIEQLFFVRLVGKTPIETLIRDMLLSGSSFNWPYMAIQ
# [28] = biological target: Voltage-dependent T-type calcium channel subunit alpha-1H (Homo sapiens, UniProt O95180); format: functional;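 further: channel activity triggered by adding a high calcium stimulation buffer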
# [29] = system: H9c2; experiment: cells; format: functional, cell-based; settings: Rattus norvegicus, H9c2, Myocardium;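 further: confirmatory concentration-response retest of ultra-high-throughput screening hits for modulation of myocardial damage; cell death induced by hydrogen peroxide oxidative stress; compound pretreatment for 60 min then peroxide exposure for 2 h; potency is for protecting the cells against peroxide damage rather than for killing them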
# [30] = Luminescence Cell-Based Dose Retest to Confirm Inhibitors of Cancer Stem Cells. [Related pubchem assays (depositor defined):AID2717, AID2721]; format: functional; settings: Homo sapiens
structure (smiles),measurement,setting,value
CCCCCCOC(=O)Sc1nc2ccccc2o1,AC50,[1],2.78 µM (active)
C/C(=N\Nc1ccc(C#N)cc1[N+](=O)[O-])c1ccc(O)cc1,IC50,[2],155 µM (inactive)
CC1CC(C)CN(C(=O)c2ccc(C(=O)c3ccccc3)cc2)C1 (centres undefined),IC50,[3],10.8 µM (active)
same,IC50,[4],8.32 µM (active)
Oc1cc2c(cc1O)CN(C(=S)NCCc1ccc(Cl)cc1)CCC2 [CAPSAZEPINE],AC50,[5],11.2 µM (inconclusive)
C=C(C)C(=O)OCCCCCCCCCC,AC50,[5],3.55 µM (inconclusive)
COc1ccc2sc(-c3ccc(S(C)(=O)=O)cc3)c(C#Cc3cncn3C)c2c1,EC50,[6],> 89.2 µM (inactive)
Cc1nnnn1/C(=C\c1ccccc1)C(=O)OCC(=O)Nc1ccc(Cl)cc1F,EC50,[7],> 120 µM (not active)
same,EC50,[8],> 60 µM (not active)
same,EC50,[9],5.56 µM (active)
same,EC50,[6],> 89.2 µM (inactive)
Cc1cc(C)n(-c2nc3ccccc3c(=O)n2OCC#N)n1,EC50,[10],150 µM (active)
same,EC50,[11],28.9 µM (active)
same,EC50,[12],0.727 µM (active)
same,EC50,[13],1.14 µM (active)
same,EC50,[14],137 µM (active)
same,EC50,[15],> 180 µM (inactive)
same,EC50,[16],4.32 µM (active)
same,AC50,[17],4.13 µM (active)
same,CC50,[18],8.68 µM (active)
same,EC50,[19],> 150 µM (inactive)
same,AC50,[20],0.881 µM (active)
Cc1cc(C)nc(NC(N)=Nc2ccccc2-c2ccccc2)n1,IC50,[21],> 80 µM (inactive)
same,IC50,[22],16.9 µM (active)
CC(O)[C@@H](O)[C@H]1CNc2nc(N)[nH]c(=O)c2N1 (some centres undefined),AC50,[5],3.55 µM (inconclusive)
CS(=O)(=O)N1CCN(C(=O)c2cccnc2)CC1,AC50,[23],> 150 µM (inactive)
Nc1nc2ccccc2n1/N=C/c1ccc2c(c1)OCO2,IC50,[2],45.6 µM (inactive)
Oc1c(Br)cc(Br)cc1/C=N/c1ccc2c(c1)OCO2,IC50,[3],4.43 µM (active)
same,IC50,[4],7.68 µM (active)
O=C(NNc1nc2ccc(Cl)cc2s1)c1cc(-c2cccs2)nc2ccccc12,EC50,[10],19.7 µM (active)
same,EC50,[24],0.472 µM (active)
same,EC50,[25],> 150 µM (not active)
same,EC50,[12],0.433 µM (active)
same,EC50,[15],> 180 µM (inactive)
same,EC50,[26],5.79 µM (active)
same,AC50,[1],2.18 µM (active)
same,EC50,[19],12.8 µM (active)
CCC(C(=O)NCCC(C)C)n1ccc2cc(S(=O)(=O)N3CCCCC3)ccc21 (centres undefined),IC50,[22],5.14 µM (active)
Oc1cccc(Cl)c1Cl,AC50,[5],5.01 µM (inconclusive)
CC(=O)c1cn(CCOc2ccccc2C)c2ccccc12,IC50,[22],3.66 µM (active)
same,IC50,[27],8.92 µM (active)
O=C(Nc1nnc(-c2ccc3c(c2)CCCC3)o1)c1ccccc1,EC50,[10],> 160 µM (inactive)
same,EC50,[12],0.229 µM (active)
same,EC50,[15],> 180 µM (inactive)
same,EC50,[28],3.25 µM (active)
same,IC50,[29],> 79 µM (inactive)
same,CC50,[18],> 25 µM (active)
same,EC50,[19],4.72 µM (active)
same,AC50,[20],4.89 µM (active)
Cc1ccc(C(=O)Nc2nnc(-c3ccccc3)o2)cc1C,AC50,[20],14.2 µM (active)
Cc1nc(NC(=O)c2ccco2)sc1-c1csc(Nc2ccc(Cl)cc2)n1,AC50,[30],2.03 µM (active)
same,AC50,[23],39.7 µM (active)
Cc1sc2nc(C3CCCCC3)nc(SCC(=O)N3CC(=O)Nc4ccccc43)c2c1C,IC50,[3],0.316 µM (active)
same,IC50,[4],0.182 µM (active)
